In patent EP4603105A1, “PHARMACEUTICAL COMPOSITION CONTAINING CYCLIC COMPOUND HAVING SELECTIVE KRAS INHIBITORY EFFECT AGAINST HRAS AND NRAS” (CHUGAI SEIYAKU KABUSHIKI KAISHA, priority 2022, dated 2024):

Legend:
[1] = biological target: GDP-bound NRAS wild-type protein (Homo sapiens, UniProt P01111); assay: Binding to NRAS by surface plasmon resonance (SPR), KD and KD ratio to KRAS; settings: ratio of the KD value with respect to GDP-bound NRAS wild-type protein to the KD value with respect to KRAS
GDP-bound NRAS wild-type protein, sequence (P01111 whole entry): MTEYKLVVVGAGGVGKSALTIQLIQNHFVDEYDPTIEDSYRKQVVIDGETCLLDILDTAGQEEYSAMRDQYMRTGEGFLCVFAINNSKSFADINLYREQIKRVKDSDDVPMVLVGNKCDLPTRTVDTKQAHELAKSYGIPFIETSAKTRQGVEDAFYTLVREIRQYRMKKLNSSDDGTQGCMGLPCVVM
How it was run: (§1)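 Compound binding is evaluated by SPR single-cycle kinetics, with concentrations added intermittently from low to high for 75 s each. Target surfaces carry GDP-loaded biotinylated Avi-RAS at about 100–300 RU, regenerated after each cycle; temperature 30°C. A 1:1 binding model gives KD.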

HRAS wild-type protein = HRAS wild-type protein (Homo sapiens, UniProt P01112); assay: Binding to HRAS by surface plasmon resonance (SPR), KD and KD ratio to KRAS; settings: ratio of the KD value with respect to HRAS wild-type protein to the KD value with respect to KRAS
HRAS wild-type protein, sequence (P01112 whole entry): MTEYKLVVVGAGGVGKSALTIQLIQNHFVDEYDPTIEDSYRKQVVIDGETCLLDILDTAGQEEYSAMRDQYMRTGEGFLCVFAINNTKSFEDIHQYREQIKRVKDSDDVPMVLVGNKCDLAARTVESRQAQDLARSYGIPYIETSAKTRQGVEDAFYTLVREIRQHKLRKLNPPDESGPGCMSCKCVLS
How it was run: as §1

[2] = tested on: human lung cancer strain NCI-H441; format: cell-based
How it was run: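 Proliferation was scored by […] measured after the reagent was added to cultures kept at 37°C in 5% carbon dioxide.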

Compound | NRAS /KRAS [1] | HRAS /KRAS (HRAS wild-type protein) | IC50 [2] [nM]
CCCN(C)C(=O)[C@@H]1CC(=O)N(C)[C@@H](C(C)C)C(=O)N[C@@H]([C@@H](C)CC)C(=O)N(C)CC(=O)N(C)[C@H]2C/C=C\CCN(C2=O)[C@@H](Cc2ccc(C(F)(F)F)cc2)C(=O)N(C)CC(=O)N[C@@H](CCc2cc(F)c(C(F)(F)F)c(F)c2)C(=O)N2C[C@@H](C)C[C@H]2C(=O)NC2(CCC2)C(=O)N(C)[C@@H](C2CCCC2)C(=O)N1C [PP2079] | A (a compound having 10 or more and less than 20 is denoted as A) | A (a compound having 10 or more and less than 20 is denoted as A) | 16
CC[C@H](C)[C@@H]1NC(=O)[C@H](C2CC2)N(C)C(=O)C[C@@H](C(=O)N(C)CC)N(C)C(=O)[C@H](C2CCCC2)N(C)C(=O)C2(CCC2)NC(=O)[C@@H]2C[C@H](C)CN2C(=O)[C@H](CCc2cc(F)c(C(F)(F)F)c(F)c2)NC(=O)CN(C)C(=O)[C@H](Cc2ccc(C(F)(F)F)cc2)N2CC/C=C\C[C@@H](C2=O)N(C)C(=O)CN(C)C1=O [PP2080] | A (a compound having 10 or more and less than 20 is denoted as A) | A (a compound having 10 or more and less than 20 is denoted as A) | 17.8
CCCN(C)C(=O)[C@@H]1CC(=O)N(C)[C@@H](C2CC2)C(=O)N[C@@H]([C@@H](C)CC)C(=O)N(C)CC(=O)N(C)[C@H]2C/C=C\CCN(C2=O)[C@@H](Cc2ccc(C(F)(F)F)cc2)C(=O)N(C)CC(=O)N[C@@H](CCc2cc(F)c(C(F)(F)F)c(F)c2)C(=O)N2C[C@@H](C)C[C@H]2C(=O)NC2(CCC2)C(=O)N(C)[C@@H](C2CCCC2)C(=O)N1C [PP2081] | A (a compound having 10 or more and less than 20 is denoted as A) | A (a compound having 10 or more and less than 20 is denoted as A) | 11.2
CCCN(C)C(=O)[C@@H]1CC(=O)N(C)[C@@H](C2CCC2)C(=O)N[C@@H]([C@@H](C)CC)C(=O)N(C)CC(=O)N(C)[C@H]2C/C=C\CCN(C2=O)[C@@H](Cc2ccc(C(F)(F)F)cc2)C(=O)N(C)CC(=O)N[C@@H](CCc2cc(F)c(C(F)(F)F)c(F)c2)C(=O)N2C[C@@H](C)C[C@H]2C(=O)NC2(CCC2)C(=O)N(C)[C@@H](C2CCCC2)C(=O)N1C [PP2083] | A (a compound having 10 or more and less than 20 is denoted as A) | B (a compound having 3 or more and less than 10 is denoted as B) | 10.3
C#CCN1CC(=O)N(C)[C@H]2C/C=C\CCN(C2=O)[C@@H](Cc2ccc(C(F)(F)F)cc2)C(=O)N(C)CC(=O)N[C@@H](CCc2cc(F)c(C(F)(F)F)c(F)c2)C(=O)N2C[C@H](OCC)C[C@H]2C(=O)NC2(CC(C)(C)C2)C(=O)N(C)[C@@H](C2CCCC2)C(=O)N(C)[C@H](C(=O)N(C)C)CC(=O)N(C)[C@@H](CC)C(=O)N[C@@H]([C@@H](C)CC)C1=O [PP2087] | A (a compound having 10 or more and less than 20 is denoted as A) | A (a compound having 10 or more and less than 20 is denoted as A) | 4.8
CCC[C@H]1C(=O)N[C@@H]([C@@H](C)CC)C(=O)N(C2CC2)CC(=O)N(C)[C@H]2C/C=C\CCN(C2=O)[C@@H](Cc2ccc(C)cc2)C(=O)N(C)CC(=O)N[C@@H](CCc2cc(F)c(C(F)(F)F)c(F)c2)C(=O)N2C[C@H](OCC)C[C@H]2C(=O)NC2(CC(C)(C)C2)C(=O)N(C)[C@@H](C2CCCC2)C(=O)N(C)[C@H](C(=O)N(C)C)CC(=O)N1C [PP2093] | A (a compound having 10 or more and less than 20 is denoted as A) | A (a compound having 10 or more and less than 20 is denoted as A) | 7.4
C=CCN1CC(=O)N(C)[C@H]2C/C=C\CCN(C2=O)[C@@H](Cc2ccc(C)cc2)C(=O)N(C)CC(=O)N[C@@H](CCc2cc(F)c(C(F)(F)F)c(F)c2)C(=O)N2C[C@H](OCC)C[C@H]2C(=O)NC2(CC(C)(C)C2)C(=O)N(C)[C@@H](C2CCCC2)C(=O)N(C)[C@H](C(=O)N(C)C)CC(=O)N(C)[C@@H](CCC)C(=O)N[C@@H]([C@@H](C)CC)C1=O [PP2094] | A (a compound having 10 or more and less than 20 is denoted as A) | A (a compound having 10 or more and less than 20 is denoted as A) | 5.4
C#CCN1CC(=O)N(C)[C@H]2C/C=C\CCN(C2=O)[C@@H](Cc2ccc(C)cc2)C(=O)N(C)CC(=O)N[C@@H](CCc2cc(F)c(C(F)(F)F)c(F)c2)C(=O)N2C[C@H](OCC)C[C@H]2C(=O)NC2(CC(C)(C)C2)C(=O)N(C)[C@@H](C2CCCC2)C(=O)N(C)[C@H](C(=O)N(C)C)CC(=O)N(C)[C@@H](CCC)C(=O)N[C@@H]([C@@H](C)CC)C1=O [PP2095] | A (a compound having 10 or more and less than 20 is denoted as A) | A (a compound having 10 or more and less than 20 is denoted as A) | 5.7
CCCN1CC(=O)N(C)[C@H]2C/C=C\CCN(C2=O)[C@@H](Cc2ccc(C)cc2)C(=O)N(C)CC(=O)N[C@@H](CCc2ccc(C(F)(F)F)c(OC)c2)C(=O)N2C[C@H](OCC)C[C@H]2C(=O)NC2(CC(C)(C)C2)C(=O)N(C)[C@@H](C2CCCC2)C(=O)N(C)[C@H](C(=O)N(C)C)CC(=O)N(C)[C@@H](CC)C(=O)N[C@@H]([C@@H](C)CC)C1=O [PP2096] | A (a compound having 10 or more and less than 20 is denoted as A) | A (a compound having 10 or more and less than 20 is denoted as A) | 10.7
C=CCN1CC(=O)N(C)[C@H]2C/C=C\CCN(C2=O)[C@@H](Cc2ccc(C)cc2)C(=O)N(C)CC(=O)N[C@@H](CCc2ccc(C(F)(F)F)c(OC)c2)C(=O)N2C[C@H](OCC)C[C@H]2C(=O)NC2(CC(C)(C)C2)C(=O)N(C)[C@@H](C2CCCC2)C(=O)N(C)[C@H](C(=O)N(C)C)CC(=O)N(C)[C@@H](CCC)C(=O)N[C@@H]([C@@H](C)CC)C1=O [PP2098] | A (a compound having 10 or more and less than 20 is denoted as A) | A (a compound having 10 or more and less than 20 is denoted as A) | 8.4
CCC[C@H]1C(=O)N[C@@H]([C@@H](C)CC)C(=O)N(C2CC2)CC(=O)N(C)[C@H]2C/C=C\CCN(C2=O)[C@@H](Cc2ccc(C(F)(F)F)cc2)C(=O)N(C)CC(=O)N[C@@H](CCc2cc(F)c(C(F)(F)F)c(F)c2)C(=O)N2C[C@H](OCC)C[C@H]2C(=O)NC2(CC(C)(C)C2)C(=O)N(C)[C@@H](C2CCCC2)C(=O)N(C)[C@H](C(=O)N(C)C)CC(=O)N1C [PP2101] | A (a compound having 10 or more and less than 20 is denoted as A) | B (a compound having 3 or more and less than 10 is denoted as B) | 16.6
